Measured values reported in ChEMBL document CHEMBL1201862, “PubChem BioAssay data set” (2004).
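Step 1: Grow cells in 96-well plates. Step 2: Expose to compound for 48 hours at 5 concentrations. Step 3: Interpolate endpoints linearly; if unreached, use highest concentration. GI50 is the concentration that inhibits growth by half.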 Active and inactive are the calls of the source. Rule as the data show it: active = GI50 up to about 1.1 µM and inactive = higher.

Tests used:
Assay in all cases: DTP human tumour cell line panel, 48 h
[1] = system: A549
[2] = system: DLD-1
[3] = system: DMS-114
[4] = system: DMS-273
[5] = system: NCI-H460
[6] = system: RPMI-8226
[7] = system: SF-295
[8] = system: SN12C
[9] = system: SR
[10] = system: SW-620
[11] = system: U-251
[12] = system: UACC-257
[13] = system: EKVX
[14] = system: M19-MEL
[15] = system: OVCAR-8
[16] = system: SF-539
[17] = system: UO-31
[18] = system: 786-0

Measured: GI50

O=C(NN1C(=O)CS(=O)(=O)C1c1ccc(C(F)(F)F)cc1)c1ccncc1 (stereo not drawn)
inactive: [1] > 100 µM | [2] > 100 µM | [3] > 100 µM | [4] > 100 µM | [5] > 100 µM | [6] > 100 µM | [7] > 100 µM | [8] > 100 µM | [9] > 100 µM | [10] > 100 µM | [11] > 100 µM | [12] > 100 µM

CN(C)C(CN)CC1=C(CC(CN)N(C)C)CCC1 (stereo not drawn)
inactive: [1] > 100 µM | [2] > 100 µM | [3] > 100 µM | [4] > 100 µM | [13] > 100 µM | [14] > 100 µM | [5] > 100 µM | [15] > 100 µM | [6] > 100 µM | [7] > 100 µM | [16] > 100 µM | [8] > 100 µM | [10] > 100 µM | [11] > 100 µM | [12] > 100 µM | [17] > 100 µM

O=C(CC(=O)C1CCOC1=O)C(=O)Nc1ccc(Cl)cc1Cl (stereo not drawn)
inactive: [18] > 100 µM | [1] > 100 µM | [2] > 100 µM | [3] > 100 µM | [4] > 100 µM | [13] > 100 µM | [14] > 100 µM | [5] > 100 µM | [15] > 100 µM | [6] > 100 µM | [7] > 100 µM | [16] > 100 µM | [8] > 100 µM | [10] > 100 µM | [11] > 100 µM | [12] > 100 µM | [17] > 100 µM

O=C(OC(=O)n1ccc2ccccc21)n1ccc2ccccc21
inactive: [1] > 100 µM | [2] > 100 µM | [3] > 100 µM | [4] > 100 µM | [13] > 100 µM | [14] > 100 µM | [5] > 100 µM | [15] > 100 µM | [6] > 100 µM | [7] > 92.3 µM | [16] > 100 µM | [8] > 100 µM | [10] > 100 µM | [11] > 100 µM | [12] > 100 µM | [17] 75.7 µM

CC1(C)CCc2ccc(OCCC(=O)O)cc2O1
inactive: [1] > 100 µM | [2] > 100 µM | [3] > 100 µM | [4] > 100 µM | [13] > 100 µM | [14] > 100 µM | [5] > 100 µM | [15] > 100 µM | [6] > 100 µM | [7] > 100 µM | [16] > 100 µM | [8] > 100 µM | [9] > 100 µM | [10] > 100 µM | [11] > 100 µM | [17] > 100 µM

CCOC(=O)/C(O)=C1\C(=O)N(C)C(=O)C1c1ccc(OC)c(OC)c1 (stereo not drawn)
inactive: [1] > 100 µM | [2] > 100 µM | [3] > 100 µM | [4] > 100 µM | [13] > 100 µM | [14] > 100 µM | [5] > 100 µM | [15] > 100 µM | [6] > 100 µM | [7] > 100 µM | [16] > 100 µM | [8] > 100 µM | [10] > 31.6 µM | [11] > 100 µM | [12] > 100 µM | [17] > 100 µM
